# Columns and labels:
# [1] = system: NCCIT (Other Solid Carcinomas); assay: Bliss excess, mean over the matrix (fraction); higher = more synergy
# How it was run: (§1)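 Cell lines grown in DMEM/F12 or RPMI with 10% FBS were plated in 1536-well plates and held 24 hours at 37°C, 5% CO2 before 72 hours of exposure to two-drug dose matrices, with DMSO typically at 0.2%. CellTiter-Glo 2.0 luminescence gave viability, which was converted to inhibition. Vehicle wells were set to 0 and blank wells to 1. Combination Emax is the second-highest inhibition in the matrix, and Bliss excess is the observed combination effect minus the expected EA + EB − EA·EB, where EA and EB are the single-agent effects.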
# M059J (Glioblastoma) [2] = assay: as above
# How it was run: as §1
# [3] = system: OCI-AML3 (Acute Myeloid Leukemia); assay: as above
# How it was run: as §1
# [4] = system: COR-L279 (Small Cell Lung Carcinoma); assay: as above
# How it was run: as §1
# [5] = system: NCI-H3122 (Lung Adenocarcinoma); assay: as above
# How it was run: as §1
# [6] = system: DMS-114 (Small Cell Lung Carcinoma); assay: as above
# How it was run: as §1
# [7] = system: KU812 (Chronic Myelogenous Leukemia); assay: as above
# How it was run: as §1
# [8] = system: MOG-G-CCM (Low Grade Glioma); assay: as above
# How it was run: as §1
# [9] = system: NCI-H526 (Small Cell Lung Carcinoma); assay: as above
# How it was run: as §1
# [10] = system: CW-2 (Colorectal Carcinoma); assay: as above
# How it was run: as §1
# [11] = system: KP-3 (Pancreatic Carcinoma); assay: as above
# How it was run: as §1
# [12] = system: SK-GT-4 (Esophageal Adenocarcinoma); assay: as above
# How it was run: as §1
# SJSA-1 (Osteosarcoma) [13] = assay: as above
# How it was run: as §1
# [14] = system: KYSE-270 (Esophageal Squamous Cell Carcinoma); assay: as above
# How it was run: as §1
# [15] = system: NCI-H520 (Squamous Cell Lung Carcinoma); assay: as above
# How it was run: as §1
# [16] = system: NCI-H929 (Plasma Cell Myeloma); assay: as above
# How it was run: as §1
# [17] = system: MN-60 (B-Lymphoblastic Leukemia); assay: as above
# How it was run: as §1
# [18] = system: ST486 (Burkitt's Lymphoma); assay: as above
# How it was run: as §1
# [19] = system: VMRC-RCZ (Kidney Carcinoma); assay: as above
# How it was run: as §1
# [20] = system: T-T (Esophageal Squamous Cell Carcinoma); assay: as above
# How it was run: as §1
# NCI-H2731 (Mesothelioma) [21] = assay: as above
# How it was run: as §1
# [22] = system: NCCIT (Other Solid Carcinomas); assay: combination Emax (second highest fraction inhibited in the dose matrix, 72 h); higher = more inhibition; extreme values may be limits of the assay
# How it was run: as §1
# M059J (Glioblastoma) [23] = assay: as above
# How it was run: as §1
# [24] = system: OCI-AML3 (Acute Myeloid Leukemia); assay: as above
# How it was run: as §1
# [25] = system: COR-L279 (Small Cell Lung Carcinoma); assay: as above
# How it was run: as §1
# [26] = system: NCI-H3122 (Lung Adenocarcinoma); assay: as above
# How it was run: as §1
# [27] = system: DMS-114 (Small Cell Lung Carcinoma); assay: as above
# How it was run: as §1
# [28] = system: KU812 (Chronic Myelogenous Leukemia); assay: as above
# How it was run: as §1
# [29] = system: MOG-G-CCM (Low Grade Glioma); assay: as above
# How it was run: as §1
# [30] = system: NCI-H526 (Small Cell Lung Carcinoma); assay: as above
# How it was run: as §1
# [31] = system: CW-2 (Colorectal Carcinoma); assay: as above
# How it was run: as §1
# [32] = system: KP-3 (Pancreatic Carcinoma); assay: as above
# How it was run: as §1
# [33] = system: SK-GT-4 (Esophageal Adenocarcinoma); assay: as above
# How it was run: as §1
# SJSA-1 (Osteosarcoma) [34] = assay: as above
# How it was run: as §1
# [35] = system: KYSE-270 (Esophageal Squamous Cell Carcinoma); assay: as above
# How it was run: as §1
# [36] = system: NCI-H520 (Squamous Cell Lung Carcinoma); assay: as above
# How it was run: as §1
# [37] = system: NCI-H929 (Plasma Cell Myeloma); assay: as above
# How it was run: as §1
# [38] = system: MN-60 (B-Lymphoblastic Leukemia); assay: as above
# How it was run: as §1
# [39] = system: ST486 (Burkitt's Lymphoma); assay: as above
# How it was run: as §1
# [40] = system: VMRC-RCZ (Kidney Carcinoma); assay: as above
# How it was run: as §1
# [41] = system: T-T (Esophageal Squamous Cell Carcinoma); assay: as above
# How it was run: as §1
# NCI-H2731 (Mesothelioma) [42] = assay: as above
# How it was run: as §1
# 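For Bliss excess, mean over the matrix in this document: after 72 h of two-drug dosing.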
smiles,measurement,setting,value
"N#Cc1cnc(Nc2cc(NC[C@H]3CNCCO3)c(C(F)(F)F)cn2)cn1 [SRA737] + CCc1c2c(nc3ccc(O)cc13)-c1cc3c(c(=O)n1C2)COC(=O)[C@]3(O)CC [SN-38] (first compound max 10 µM, 7x7, partner max 0.3 µM)",Bliss excess,[1],0.0294
same,Bliss excess,M059J (Glioblastoma) [2],-0.0326
same,Bliss excess,[3],-0.067
same,Bliss excess,[4],-0.0153
same,Bliss excess,[5],-0.0454
same,Bliss excess,[6],-0.0589
same,Bliss excess,[7],-0.0939
same,Bliss excess,[8],-0.0105
same,Bliss excess,[9],-0.0427
same,Bliss excess,[10],-0.0853
same,Bliss excess,[11],-0.0089
same,Bliss excess,[12],-0.0544
same,Bliss excess,SJSA-1 (Osteosarcoma) [13],-0.0751
same,Bliss excess,[14],-0.0265
same,Bliss excess,[15],-0.0063
same,Bliss excess,[16],-0.0781
same,Bliss excess,[17],-0.0495
same,Bliss excess,[18],-0.0232
same,Bliss excess,[19],-0.0348
same,Bliss excess,[20],0.0451
same,Bliss excess,NCI-H2731 (Mesothelioma) [21],-0.005
same,combination Emax,[22],0.783
same,combination Emax,M059J (Glioblastoma) [23],0.908
same,combination Emax,[24],0.849
same,combination Emax,[25],1
same,combination Emax,[26],0.857
same,combination Emax,[27],0.608
same,combination Emax,[28],0.799
same,combination Emax,[29],0.734
same,combination Emax,[30],0.993
same,combination Emax,[31],0.625
same,combination Emax,[32],0.273
same,combination Emax,[33],0.55
same,combination Emax,SJSA-1 (Osteosarcoma) [34],0.664
same,combination Emax,[35],1
same,combination Emax,[36],0.819
same,combination Emax,[37],0.9
same,combination Emax,[38],0.79
same,combination Emax,[39],0.991
same,combination Emax,[40],0.579
same,combination Emax,[41],0.834
same,combination Emax,NCI-H2731 (Mesothelioma) [42],0.478
"C[C@@H]1COCCN1c1cc(C2([S@](C)(=N)=O)CC2)nc(-c2ccnc3[nH]ccc23)n1 [AZD6738] + Nc1ccn([C@@H]2O[C@H](CO)[C@@H](O)C2(F)F)c(=O)n1 [Gemcitabine] (first compound max 10 µM, 7x7, partner max 0.3 µM)",Bliss excess,[1],0.107
same,Bliss excess,M059J (Glioblastoma) [2],0.0209
same,Bliss excess,[3],-0.0143
same,Bliss excess,[4],0.0205
same,Bliss excess,[5],0.0297
same,Bliss excess,[6],0.0549
same,Bliss excess,[7],-0.0077
same,Bliss excess,[8],0.0311
same,Bliss excess,[9],0.0678
same,Bliss excess,[10],0.0109
same,Bliss excess,[12],0.023
same,Bliss excess,SJSA-1 (Osteosarcoma) [13],-0.0104
same,Bliss excess,[14],0.0806
same,Bliss excess,[15],0.0434
same,Bliss excess,[16],0
same,Bliss excess,[17],-0.0375
same,Bliss excess,[18],0.0362
same,Bliss excess,[19],0.0193
same,Bliss excess,[20],0.221
same,Bliss excess,NCI-H2731 (Mesothelioma) [21],0.0371
same,combination Emax,[22],0.839
same,combination Emax,M059J (Glioblastoma) [23],0.823
same,combination Emax,[24],0.953
same,combination Emax,[25],0.995
same,combination Emax,[26],0.899
same,combination Emax,[27],0.78
same,combination Emax,[28],0.853
same,combination Emax,[29],0.783
same,combination Emax,[30],0.973
same,combination Emax,[31],0.659
same,combination Emax,[33],0.585
same,combination Emax,SJSA-1 (Osteosarcoma) [34],0.722
same,combination Emax,[35],1
same,combination Emax,[36],0.916
same,combination Emax,[37],0.906
same,combination Emax,[38],0.72
same,combination Emax,[39],0.98
same,combination Emax,[40],0.542
same,combination Emax,[41],0.897
same,combination Emax,NCI-H2731 (Mesothelioma) [42],0.511
"N#Cc1cnc(Nc2cc(NC[C@H]3CNCCO3)c(C(F)(F)F)cn2)cn1 [SRA737] + Nc1ccn([C@@H]2O[C@H](CO)[C@@H](O)C2(F)F)c(=O)n1 [Gemcitabine] (first compound max 10 µM, 7x7, partner max 0.3 µM)",Bliss excess,[1],0.0492
same,Bliss excess,M059J (Glioblastoma) [2],0.0426
same,Bliss excess,[3],-0.0422
same,Bliss excess,[5],0.0479
same,Bliss excess,[6],0.087
same,Bliss excess,[7],0.0421
same,Bliss excess,[8],0.0991
same,Bliss excess,[9],0.0912
same,Bliss excess,[10],0.0386
same,Bliss excess,[12],0.0313
same,Bliss excess,SJSA-1 (Osteosarcoma) [13],-0.0857
same,Bliss excess,[14],0.0675
same,Bliss excess,[15],0.0706
same,Bliss excess,[16],0.0643
same,Bliss excess,[17],-0.0116
same,Bliss excess,[18],-0.006
same,Bliss excess,[19],0.0299
same,Bliss excess,[20],0.144
same,Bliss excess,NCI-H2731 (Mesothelioma) [21],0.0907
same,combination Emax,[22],0.816
same,combination Emax,M059J (Glioblastoma) [23],0.794
same,combination Emax,[24],0.93
same,combination Emax,[25],0.986
same,combination Emax,[26],0.826
same,combination Emax,[27],0.715
same,combination Emax,[28],0.813
same,combination Emax,[29],0.857
same,combination Emax,[30],0.942
same,combination Emax,[31],0.623
same,combination Emax,[33],0.491
same,combination Emax,SJSA-1 (Osteosarcoma) [34],0.681
same,combination Emax,[35],0.991
same,combination Emax,[36],0.892
same,combination Emax,[37],0.922
same,combination Emax,[38],0.745
same,combination Emax,[39],0.968
same,combination Emax,[40],0.518
same,combination Emax,[41],0.737
same,combination Emax,NCI-H2731 (Mesothelioma) [42],0.515

# Reference: the supplement of paper PMC11061612
